According to patent US20190076406A1, “METHODS AND COMPOSITIONS FOR TREATING CONDITIONS ASSOCIATED WITH ANGIOGENESIS USING A VASCULAR ADHESION PROTEIN-1 (VAP-1) INHIBITOR” (MASSACHUSETTS EYE & EAR INFIRMARY, priority 2007, published 2019):

Tests used:
ICAM-1 = experiment: ELISA of ICAM-1 in RPE-choroid complex after laser injury; format: in vivo, rat; conditions: 3 days after laser injury; 0.3 mg/kg daily i.p.; mean±SEM
Procedure: (§1) Brown-Norway rats were anesthetized with 0.2-0.3 ml of a 50:50 mixture of 100 mg/ml Ketamine and 20 mg/ml Xylazine. Pupils were dilated with 5.0% Phenylephrine and 0.8% Tropicamide. CNV was induced with a 532 nm laser (Oculight GLx, Iridex, Mountain View, Calif.). Six laser spots (150 mW, 100 μm, 100 msec) were placed in each eye using a slit-lamp delivery system and a cover glass as a contact lens. Production of a bubble at the time of laser confirmed the rupture of the Bruch's membrane.
(§2) To block VAP-1, a specific VAP-1 inhibitor, Compound II described above, was used (R-tech Ueno, Ltd., Tokyo, Japan). […]
(§3) The RPE-choroid complex was carefully isolated from eyes 3 days after photocoagulation and placed in 300 μl of lysis buffer supplemented with protease inhibitors and sonicated. The lysate was centrifuged at 15,000 rpm for 15 minutes at 4° C. and the levels of TNF-α, monocyte chemotactic protein (MCP)-1, and intercellular adhesion molecule (ICAM)-1 were determined with rat TNF-α (BD bioscience), MCP-1 (BD bioscience) and ICAM-1 (R&D Systems, Minneapolis, Minn.) enzyme-linked immunosorbent assay (ELISA) kits according to the manufacturers' protocols. Total protein concentration was determined using a Bio-Rad Protein Assay Kit (Bio-Rad Laboratories Hercules, Calif.) and dilutions of bovine serum albumin (Bio-Rad Laboratories) as standards.

[1] = test system: laser-induced CNV in Brown-Norway rats; experiment: Laser-induced CNV, lesion size in choroidal flatmounts; format: in vivo, rat; conditions: 0.3 mg/kg BW daily i.p., mean±SEM
Procedure: as §1
To block VAP-1, a specific VAP-1 inhibitor, Compound II described above, was used (R-tech Ueno, Ltd., Tokyo, Japan). After laser injury, the inhibitor (0.3 mg/kg BW) was administered to the animals by daily i.p. injections. As a control, some animals received the same regimen for the vehicle solution alone.
One week or two weeks after laser injury and treatment with VAP-1 inhibitor or vehicle, the size of CNV lesions was quantified using choroidal flat mounts. Briefly, rats were anesthetized and perfused through the left ventricle with 20 ml PBS followed by 20 ml of 5 mg/ml fluorescein labeled dextran (FITC-dextran; MW=2×106, SIGMA) in 1% gelatin. The eyes were enucleated and fixed in 4% paraformaldehyde for 3 hours. The anterior segment and retina were removed from the eyecup. […] The average size of the CNV lesions was then determined and used for the evaluation.

[2] = test system: IL-1β-induced corneal angiogenesis in BALB/c mice; experiment: IL-1β-induced corneal angiogenesis; format: in vivo, mouse; conditions: day 6 after pellet implantation; 0.3 mg/kg daily i.p.
Procedure: BALB/c mice were anesthetized by intrapcritoneal (i.p.) injection of pentobarbital sodium (60 mg/kg). Hydron pellets (0.3 μl) containing 30 ng mouse IL-1β (401-ML; R&D Systems) were prepared and implanted into the corneas. Pellets were positioned 1 mm from the corneal limbus. Implanted eyes were treated with Bacitracin ophthalmic ointment (E. Fougera & Co.) to prevent infection.
To block VAP-1, mice received daily i.p. injections of a specific VAP-1 inhibitor, Compound II (R-tech Ueno Ltd., Tokyo, Japan) as described above. A daily dose of 0.3 mg/kg was administered at day 0 and continued until the sixth day after implantation. Two, four and six days after implantation, digital images of the corneal vessels were obtained and recorded using OpenLab software version 2.2.5 (Improvision Inc.) with standardized illumination and contrast and were saved onto disks. The quantitative analysis of new vessel growth in the mouse corneas was performed using Scion Image software (version 4.0.2; Scion Corp.).

[3] = biological target: T1, rat semicarbazide-sensitive amine oxidase (SSAO) (Rattus norvegicus, UniProt O08590); experiment: IC50 against rat SSAO; format: biochemical
T1 sequence (O08590 1-763): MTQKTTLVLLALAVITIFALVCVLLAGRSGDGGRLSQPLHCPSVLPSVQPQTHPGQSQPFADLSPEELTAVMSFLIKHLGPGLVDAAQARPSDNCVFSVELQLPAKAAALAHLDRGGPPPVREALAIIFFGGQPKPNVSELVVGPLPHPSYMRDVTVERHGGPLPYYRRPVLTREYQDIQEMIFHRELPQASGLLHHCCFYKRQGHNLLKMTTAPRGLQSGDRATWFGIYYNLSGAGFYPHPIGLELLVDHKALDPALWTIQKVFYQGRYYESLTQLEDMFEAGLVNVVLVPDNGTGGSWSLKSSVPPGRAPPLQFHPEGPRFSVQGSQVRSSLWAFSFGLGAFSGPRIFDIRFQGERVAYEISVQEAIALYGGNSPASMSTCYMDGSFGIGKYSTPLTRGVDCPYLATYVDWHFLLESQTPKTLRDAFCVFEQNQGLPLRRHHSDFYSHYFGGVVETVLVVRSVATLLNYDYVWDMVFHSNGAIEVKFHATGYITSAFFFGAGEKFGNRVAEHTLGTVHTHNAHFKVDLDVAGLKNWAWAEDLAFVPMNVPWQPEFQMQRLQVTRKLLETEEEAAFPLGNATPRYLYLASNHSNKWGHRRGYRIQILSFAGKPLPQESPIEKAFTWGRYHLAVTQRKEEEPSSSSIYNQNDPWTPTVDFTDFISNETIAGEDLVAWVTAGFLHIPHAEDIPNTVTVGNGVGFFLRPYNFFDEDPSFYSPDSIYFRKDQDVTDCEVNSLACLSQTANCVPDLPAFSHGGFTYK

TNF-α = experiment: ELISA of TNF-α in RPE-choroid complex after laser injury; format: in vivo, rat; conditions: 3 days after laser injury; 0.3 mg/kg daily i.p.; mean±SEM
Procedure: as §1, §2, §3

MCP-1 = experiment: ELISA of MCP-1 in RPE-choroid complex after laser injury; format: in vivo, rat; conditions: 3 days after laser injury; 0.3 mg/kg daily i.p.; mean±SEM
Procedure: as §1, §2, §3

For `CC(=O)Nc1nc(CCc2ccc(NC(=N)NN)cc2)c(Cc2ccc(S(C)(=O)=O)cc2)s1` [Compound II], the “ICAM-1 protein level in RPE-choroid complex” value (ICAM-1) was 57 ± 2 ng/mg, the CNV size ([1]; 7 days after laser injury, n=7) was 14,536±2175 μm^2 and the CNV size ([1]; fourteen days after laser injury, n=10 eyes, not significant vs vehicle (p=0.5)) was 23,992±1437 μm^2. The “neovascular area relative to control mice (IL-1β alone or IL-1β+vehicle)” value [2] was “about half”, the IC50 [3] was 8 nM and the “TNF-α protein level in RPE-choroid complex” value (TNF-α) was 360 ± 12 pg/mg. For the same compound, the “MCP-1 protein level in RPE-choroid complex” value (MCP-1) was 662 ± 52 pg/mg.
